Results taken from patent US20160090556A1, “PRODUCTS COMPRISING MALODOR REDUCTION MATERIALS” (The Procter & Gamble Company, priority 2014, published 2016).
Where two headings read alike, the source gives them in different places.

Test: Liquid dish neat product liquid-air partition coefficient
Format: physicochemical
[1] = class code letter within Comment Code
[2] = codes K/L of the Comment Code, Table 1

| SMILES | Log of liquid dish neat product liquid-air partition coefficient (Comment Code K/L) [1] | Log of liquid dish neat product liquid-air partition coefficient (Comment Code K/L) | Comment Code: Log of liquid dish neat product liquid-air partition coefficient (code letters K, L) | further results |
| --- | --- | --- | --- | --- |
| C=CC1(C)CCC(C(C)(C)O)O1 (stereo not drawn) [Material 155] | K (Log of liquid dish neat product liquid-air partition coefficient greater than or equal to −7) | – | – | – |
| CCCCCCCC1CCCC(=O)O1 (stereo not drawn) [Material 463] | K (Log of liquid dish neat product liquid-air partition coefficient greater than or equal to −7) | – | – | – |
| CCCC(O)CCC1C(C)CCCC1(C)C (stereo not drawn) [Material 1063] | – | K (Log of liquid dish neat product liquid-air partition coefficient greater than or equal to −7) | – | – |
| COc1cc(C)cc(O)c1 [Material 811] | – | – | K (Log of liquid dish neat product liquid-air partition coefficient greater than or equal to −7) | – |
| C=CC(C)(O)CCC=C(C)C (stereo not drawn) [Material 157] | – | – | K (Log of liquid dish neat product liquid-air partition coefficient greater than or equal to −7) | – |
| CCCCCCCC(=O)OCc1ccco1 [Material 336] | K (Log of liquid dish neat product liquid-air partition coefficient greater than or equal to −7) | – | – | – |
| CC/C(=C/CC1CC=C(C)C1(C)C)CO (stereo not drawn) [Material 1024] | – | K (Log of liquid dish neat product liquid-air partition coefficient greater than or equal to −7) | K (Log of liquid dish neat product liquid-air partition coefficient greater than or equal to −7) | – |
| CC1CCC2C(C2(C)C)C12COC(C)(C)OC2 (stereo not drawn) [Material 1036] | – | K (Log of liquid dish neat product liquid-air partition coefficient greater than or equal to −7) | – | – |
| CC=C(C)C(=O)OCCC=CCC [Material 274] | K (Log of liquid dish neat product liquid-air partition coefficient greater than or equal to −7) | – | – | – |
| CCCCCCCCCCCCCC(=O)OC [Material 104] | K (Log of liquid dish neat product liquid-air partition coefficient greater than or equal to −7) | – | – | – |
| COC(Cc1ccccc1)OC [Material 627] | – | K (Log of liquid dish neat product liquid-air partition coefficient greater than or equal to −7) | K (Log of liquid dish neat product liquid-air partition coefficient greater than or equal to −7) | – |
| Cc1ccc(CC(C)C=O)cc1 (stereo not drawn) [Material 742] | – | K (Log of liquid dish neat product liquid-air partition coefficient greater than or equal to −7) | – | – |
| CC(=O)C1=C(C)[C@@H]2C[C@@]3(C1)[C@H](C)CC[C@H]3C2(C)C [Material 1129] | – | – | K (Log of liquid dish neat product liquid-air partition coefficient greater than or equal to −7) | Comment Code: Log of liquid dish neat product liquid-air partition coefficient [2]: K (Log of liquid dish neat product liquid-air partition coefficient greater than or equal to −7) |
| CC(=CC#N)CCc1ccccc1 [Material 505] | K (Log of liquid dish neat product liquid-air partition coefficient greater than or equal to −7) | – | – | – |
| OCCCc1ccccc1 [Material 254] | K (Log of liquid dish neat product liquid-air partition coefficient greater than or equal to −7) | – | – | – |
| C[C@H]1[C@@H]2C[C@H](C[C@@]13C=CC(=O)CC3)C2(C)C [Material 1143] | – | – | K (Log of liquid dish neat product liquid-air partition coefficient greater than or equal to −7) | Comment Code: Log of liquid dish neat product liquid-air partition coefficient [2]: K (Log of liquid dish neat product liquid-air partition coefficient greater than or equal to −7) |
| CC(C=O)=Cc1ccccc1 [Material 701] | – | – | K (Log of liquid dish neat product liquid-air partition coefficient greater than or equal to −7) | – |
| CC1C(C)(C)C2=C(C(=O)CCC2)C1(C)C (stereo not drawn) [Material 572] | – | K (Log of liquid dish neat product liquid-air partition coefficient greater than or equal to −7) | – | – |
| C=CC(C)=CCC=C(C)CCC=C(C)C [Material 710] | – | K (Log of liquid dish neat product liquid-air partition coefficient greater than or equal to −7) | – | – |
| CC(C)=CCC/C(C)=C\CO [Material 64] | K (Log of liquid dish neat product liquid-air partition coefficient greater than or equal to −7) | – | – | – |
| OCC=Cc1ccccc1 [Material 555] | K (Log of liquid dish neat product liquid-air partition coefficient greater than or equal to −7) | – | – | – |
| CC1=CC2C(C(C)C)CCC(C)(O)C2CC1 (stereo not drawn) [Material 1047] | – | K (Log of liquid dish neat product liquid-air partition coefficient greater than or equal to −7) | – | – |
| CC(=O)OCC=C(C)CCC=C(C)CCC=C(C)C [Material 368] | K (Log of liquid dish neat product liquid-air partition coefficient greater than or equal to −7) | – | – | – |

| SMILES | Log of liquid dish neat product liquid-air partition coefficient (Comment Code K/L) [1] | Log of liquid dish neat product liquid-air partition coefficient (Comment Code K/L) | Comment Code: Log of liquid dish neat product liquid-air partition coefficient (code letters K, L) | further results |
| --- | --- | --- | --- | --- |
| CCC(=O)CCC1C(C)=CCCC1(C)C (stereo not drawn) [Material 293] | K (Log of liquid dish neat product liquid-air partition coefficient greater than or equal to −7) | – | – | – |
| CC1=CC(C)C2(CCCC(C)(C)C2=O)CC1 (stereo not drawn) [Material 1022] | – | K (Log of liquid dish neat product liquid-air partition coefficient greater than or equal to −7) | K (Log of liquid dish neat product liquid-air partition coefficient greater than or equal to −7) | – |
| CCOC(=O)C12CCCC1C1CCC2C1 (stereo not drawn) [Material 344] | K (Log of liquid dish neat product liquid-air partition coefficient greater than or equal to −7) | – | – | – |
| CC(C)Cc1ccc2ccccc2n1 [Material 849] | – | K (Log of liquid dish neat product liquid-air partition coefficient greater than or equal to −7) | – | – |
| CC1CCC(C(C)(C)O)CC2=C1CCC2C (stereo not drawn) [Material 292] | K (Log of liquid dish neat product liquid-air partition coefficient greater than or equal to −7) | – | – | – |
| CCCCCCCCC=CC#N [Material 827] | – | K (Log of liquid dish neat product liquid-air partition coefficient greater than or equal to −7) | – | – |
| COc1ccc(C(C)=O)cc1 [Material 761] | – | – | K (Log of liquid dish neat product liquid-air partition coefficient greater than or equal to −7) | – |
| CCCCCCCCC1CCC(=O)O1 (stereo not drawn) [Material 330] | K (Log of liquid dish neat product liquid-air partition coefficient greater than or equal to −7) | – | – | – |
| O=C1CCCCCCCCCCCCCCCO1 [Material 277] | K (Log of liquid dish neat product liquid-air partition coefficient greater than or equal to −7) | – | – | – |
| CC(=O)c1ccc2ccccc2c1 [Material 120] | K (Log of liquid dish neat product liquid-air partition coefficient greater than or equal to −7) | – | – | – |
| CC(=O)OCCc1ccccc1 [Material 832] | – | – | K (Log of liquid dish neat product liquid-air partition coefficient greater than or equal to −7) | – |
| c1ccc(Cc2ccccc2)cc1 [Material 429] | K (Log of liquid dish neat product liquid-air partition coefficient greater than or equal to −7) | – | – | – |
| CCOC(C)OCCc1ccccc1 (stereo not drawn) [Material 415] | K (Log of liquid dish neat product liquid-air partition coefficient greater than or equal to −7) | – | – | – |
| CCCOC(C)OCCc1ccccc1 (stereo not drawn) [Material 766] | – | K (Log of liquid dish neat product liquid-air partition coefficient greater than or equal to −7) | – | – |
| C=C[C@](C)(O)CCC=C(C)C [Material 888] | – | – | K (Log of liquid dish neat product liquid-air partition coefficient greater than or equal to −7) | – |
| C=CC(=C)CCC=C(C)CCC=C(C)C=O [Material 613] | – | K (Log of liquid dish neat product liquid-air partition coefficient greater than or equal to −7) | – | – |
| Cc1cccc(CCO)c1 [Material 928] | – | K (Log of liquid dish neat product liquid-air partition coefficient greater than or equal to −7) | – | – |
| CC(C)C(=O)OCCc1ccccc1 [Material 958] | – | – | K (Log of liquid dish neat product liquid-air partition coefficient greater than or equal to −7) | – |
| CC1(O)CCC2=C(CCCC2(C)C)C1 (stereo not drawn) [Material 675] | – | K (Log of liquid dish neat product liquid-air partition coefficient greater than or equal to −7) | – | – |
| CC1=CC(C)C2C(CCC(C)(C)C2O)C1 (stereo not drawn) [Material 39] | K (Log of liquid dish neat product liquid-air partition coefficient greater than or equal to −7) | – | K (Log of liquid dish neat product liquid-air partition coefficient greater than or equal to −7) | – |
| CCCCCCCCCCCCCC#N [Material 38] | K (Log of liquid dish neat product liquid-air partition coefficient greater than or equal to −7) | – | – | – |
| CC(C)C1CCC(CO)CC1 (stereo not drawn) [Material 133] | – | – | K (Log of liquid dish neat product liquid-air partition coefficient greater than or equal to −7) | – |
